pIC50: −log10 of the molar value.
Molecular target: JAK1 (Homo sapiens (Human), UniProt P23458)
Test: Analysis of JAK1 activity inhibitory capacity (ADP-Glo Kinase assay)
Type: biochemical
Settings: JAK1 enzyme, ATP 250 uM, IRS-1tide substrate, 30° C. 40 minutes, luminescence
Description: Experimental Example 1: Analysis of JAK1 activity inhibitory capacity (ADP-Glo™ Kinase assay)
An inhibitory effect of the inventive compound on JAK was identified as follows.
A control material and a test material were prepared through dilution at each concentration by using DMSO. At the same time, ATP (250 uM) and JAK's substrate (JAK1, IRS-1tide 40 ng/mL) were prepared through dilution in kinase buffer (40 mM Tris-HCl pH 7.5, 20 mM MgCl2, 0.5 mg/mL BSA, 50 uM DTT).
A test drug for each concentration, the substrate, the ATP and JAK enzymes were mixed in an eppendorf tube, and then subjected to reaction in an incubator at 30° C. for 40 minutes.
ADP-Glo ? reagent included in ADP-Glo™ Kinase Enzyme System (Promega, USA, V9571) was added to each eppendorf tube, and then subjected to reaction in the incubator at 30° C. for 40 minutes.
A kinase detection reagent included in the ADP-Glo™ Kinase Enzyme System was inserted into the eppendorf tube, after which luminescence was measured by using Wallac Victor 2TM with an integration time set to 1 second, such that an inhibitory capacity of the test material on JAKs phosphorylation was analyzed. A concentration of the compound, at which JAK enzyme activity inhibition occurs 50% compared to the control group, was determined as IC50 (nM) of an inhibitor.

JAK1, sequence (P23458 whole entry): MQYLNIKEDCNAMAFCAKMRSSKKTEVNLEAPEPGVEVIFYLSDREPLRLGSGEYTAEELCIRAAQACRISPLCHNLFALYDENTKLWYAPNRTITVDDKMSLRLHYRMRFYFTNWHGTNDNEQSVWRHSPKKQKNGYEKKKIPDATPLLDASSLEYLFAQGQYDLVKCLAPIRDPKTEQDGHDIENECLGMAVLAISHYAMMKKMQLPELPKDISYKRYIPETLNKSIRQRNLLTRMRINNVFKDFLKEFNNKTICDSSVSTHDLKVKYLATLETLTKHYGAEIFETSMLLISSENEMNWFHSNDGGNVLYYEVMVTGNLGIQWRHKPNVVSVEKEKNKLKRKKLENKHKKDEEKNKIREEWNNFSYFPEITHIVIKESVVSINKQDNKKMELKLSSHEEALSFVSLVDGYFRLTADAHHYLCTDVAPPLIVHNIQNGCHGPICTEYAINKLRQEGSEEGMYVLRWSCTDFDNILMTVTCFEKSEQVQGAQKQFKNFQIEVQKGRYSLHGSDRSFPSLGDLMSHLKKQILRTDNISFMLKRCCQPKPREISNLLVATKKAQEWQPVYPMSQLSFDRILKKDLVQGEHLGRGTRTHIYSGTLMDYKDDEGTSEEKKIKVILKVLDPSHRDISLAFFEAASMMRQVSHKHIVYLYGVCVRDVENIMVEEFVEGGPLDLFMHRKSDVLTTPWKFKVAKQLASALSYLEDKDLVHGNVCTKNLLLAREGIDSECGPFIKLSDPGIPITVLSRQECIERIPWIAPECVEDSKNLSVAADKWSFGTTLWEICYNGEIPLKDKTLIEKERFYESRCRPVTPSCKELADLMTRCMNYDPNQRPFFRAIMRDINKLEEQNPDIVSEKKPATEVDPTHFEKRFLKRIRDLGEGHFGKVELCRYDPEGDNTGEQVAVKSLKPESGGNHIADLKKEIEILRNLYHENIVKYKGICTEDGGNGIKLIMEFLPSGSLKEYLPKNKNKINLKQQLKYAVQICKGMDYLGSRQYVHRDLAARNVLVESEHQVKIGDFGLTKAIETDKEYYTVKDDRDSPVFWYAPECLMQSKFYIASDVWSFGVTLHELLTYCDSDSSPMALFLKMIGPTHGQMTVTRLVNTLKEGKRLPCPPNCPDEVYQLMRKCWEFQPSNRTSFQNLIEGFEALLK

| pIC50 | Structure (SMILES) |
| --- | --- |
| 6.00 to 7.00 | N#Cc1cc(C(=O)Nc2cccc3c(-c4ccnc(NC(=O)C5CC5)c4)c[nH]c23)ccn1 [Example 35, 2-cyano-N-(3-(2-(cyclopropanecarboxamido)pyridin-4-yl)-1H-indol-7-yl)isonicotin amide] |
| 6.00 to 7.00 | O=C(Nc1cccc2c(-c3ccnc(NC(=O)C4CC4)c3)c[nH]c12)c1ccc[nH]1 [Example 23, N-(3-(2-(cyclopropanecarboxamido)pyridin-4-yl)-1H-indol-7-yl)-1H-pyrrole-2-carboxamide] |
| 6.00 to 7.00 | O=C(Nc1cccc2c(-c3ccnc(NC(=O)C4CC4)c3)c[nH]c12)c1cccc(F)c1 [Example 38, N-(3-(2-(cyclopropanecarboxamido)pyridin-4-yl)-1H-indol-7-yl)-3-fluorobenzamide] |
| 6.00 to 7.00 | CC(C)=C(C#N)C(=O)Nc1cc(C)cc2c(-c3ccnc(NC(=O)C4CC4)c3)c[nH]c12 [Example 15, N-(4-(7-(2-cyano-3-methylbut-2-enamido)-5-methyl-1H-indol-3-yl)pyridin-2-yl)cyclo propanecarboxamide] |
| < 6.00 | COc1cc(-c2c[nH]c3c(NC(=O)C(C#N)=C(C)C)cccc23)cc(NC(=O)C2CC2)n1 [Example 19, N-(4-(7-(2-cyano-3-methylbut-2-enamido)-1H-indol-3-yl)-6-methoxypyridin-2-yl)cyclopropanecarboxamide] |
| < 6.00 | N#Cc1cc(C(=O)Nc2cccc3c2ccn3-c2ccnc(NC(=O)C3CC3)c2)ccn1 [Example 51, 2-cyano-N-(1-(2-(cyclopropanecarboxamido)pyridin-4-yl)-1H-indol-4-yl)isonicotinamide] |
| < 6.00 | CC(C)=C(C#N)C(=O)Nc1cccc2c(-c3cc(NC(=O)C4CC4)ncc3C)c[nH]c12 [Example 12, N-(4-(7-(2-cyano-3-methylbut-2-enamido)-1H-indol-3-yl)-5-methylpyridin-2-yl)cyclopropanecarboxamide] |
| 6.00 to 7.00 | N#CC1(CC(=O)Nc2cccc3c2ccn3-c2ccnc(NC(=O)C3CC3)c2)CC1 [Example 58, N-(4-(4-(2-(1-cyanocyclopropyl)acetamido)-1H-indol-1-yl)pyridin-2-yl)cyclopropane carboxamide] |
| 6.00 to 7.00 | O=C(Nc1cccc2c(-c3ccnc(NC(=O)C4CC4)c3)c[nH]c12)c1nc(C(F)(F)F)cs1 [Example 21, N-(3-(2-(cyclopropanecarboxamido)pyridin-4-yl)-1H-indol-7-yl)-4-(trifluoromethyl)thiazole-2-carboxamide] |
| 6.00 to 7.00 | O=C(Nc1cccc2c1ccn2-c1ccnc(NC(=O)C2CC2)c1)c1ccnc(F)c1F [Example 53, N-(1-(2-(cyclopropanecarboxamido)pyridin-4-yl)-1H-indol-4-yl)-2,3-difluoroisonicotinamide] |
| > 7.00 | O=C(Nc1cccc2c(-c3ccnc(NC(=O)C4CC4)c3)c[nH]c12)c1cnc(F)c(F)c1 [Example 30, N-(3-(2-(cyclopropanecarboxamido)pyridin-4-yl)-1H-indol-7-yl)-5,6-difluoronicotinamide] |
| 6.00 to 7.00 | Cc1cc(NC(=O)c2cnc(C)cn2)c2[nH]cc(-c3ccnc(NC(=O)C4CC4)c3)c2c1 [Example 16, N-(3-(2-(cyclopropanecarboxamido)pyridin-4-yl)-5-methyl-1H-indol-7-yl)-5-methylpyrazine-2-carboxamide] |
| 6.00 to 7.00 | N#CCC(=O)Nc1cccc2c1ccn2-c1ccnc(NC(=O)C2CC2)c1 [Example 41, N-(4-(4-(2-cyanoacetamido)-1H-indol-1-yl)pyridin-2-yl)cyclopropanecarboxamide] |
| > 7.00 | O=C(Nc1cccc2c(-c3ccnc(NC(=O)C4CC4)c3)c[nH]c12)c1cc(F)cc(F)c1 [Example 2, N-(3-(2-(cyclopropanecarboxamido)pyridin-4-yl)-1H-indol-7-yl)-3,5-difluorobenzamide] |
| > 7.00 | O=C(NCC(F)(F)F)Nc1cccc2c(-c3ccnc(NC(=O)C4CC4)c3)c[nH]c12 [Example 39, N-(4-(7-(3-(2,2,2-trifluoroethyl)ureido)-1H-indol-3-yl)pyridin-2-yl)cyclopropanecarboxamide] |
| > 7.00 | N#C[C@H]1C[C@H]1C(=O)Nc1cccc2c1ccn2-c1ccnc(NC(=O)C2CC2)c1 [Example 57, (1R,2S)-2-cyano-N-(1-(2-(cyclopropanecarboxamido)pyridin-4-yl)-1H-indol-4-yl) cyclopropane-1-carboxamide] |
| 6.00 to 7.00 | CC(C#N)C(=O)Nc1cccc2c1ccn2-c1ccnc(NC(=O)C2CC2)c1 (stereo not drawn) [Example 54, N-(4-(4-(2-cyanopropanamido)-1H-indol-1-yl)pyridin-2-yl)cyclopropanecarboxamide] |
| 6.00 to 7.00 | O=C(Nc1cc(-c2c[nH]c3c(NC(=O)C4CCCCC4)cccc23)ccn1)C1CC1 [Example 3, N-(3-(2-(cyclopropanecarboxamido)pyridin-4-yl)-1H-indol-7-yl)cyclohexanecarboxamide] |
| < 6.00 | O=C(Nc1cccc2c1ccn2-c1ccnc(NC(=O)C2CC2)c1)c1ccnc(F)c1 [Example 52, N-(1-(2-(cyclopropanecarboxamido)pyridin-4-yl)-1H-indol-4-yl)-2-fluoroisonicotinamide] |
| 6.00 to 7.00 | CCc1c[nH]c(C(=O)Nc2cccc3c(-c4ccnc(NC(=O)C5CC5)c4)c[nH]c23)c1 [Example 36, N-(3-(2-(cyclopropanecarboxamido)pyridin-4-yl)-1H-indol-7-yl)-4-ethyl-1H-pyrrole-2-carboxamide] |
| > 7.00 | O=C(Nc1cccc2c(-c3ccnc(NC(=O)C4CC4)c3)c[nH]c12)c1cncc(F)c1 [Example 31, N-(3-(2-(cyclopropanecarboxamido)pyridin-4-yl)-1H-indol-7-yl)-5-fluoronicotinamide] |
| > 7.00 | CC(C)=C(C#N)C(=O)Nc1cccc2c(-c3ccnc(NC(=O)C4CC4)c3)c[nH]c12 [Example 1, N-(4-(7-(2-cyano-3-methylbut-2-enamido)-1H-indol-3-yl)pyridin-2-yl)cyclopropanec arboxamide] |
| 6.00 to 7.00 | N#Cc1ccc(C(=O)Nc2cccc3c(-c4ccnc(NC(=O)C5CC5)c4)c[nH]c23)cc1 [Example 27, 4-cyano-N-(3-(2-(cyclopropanecarboxamido)pyridin-4-yl)-1H-indol-7-yl)benzamide] |
| 6.00 to 7.00 | N#CC1(CC(=O)Nc2cccc3c(-c4ccnc(NC(=O)C5CC5)c4)c[nH]c23)CC1 [Example 13, N-(4-(7-(2-(l-cyanocyclopropyl)acetamido)-1H-indol-3-yl)pyridin-2-yl)cyclopropanecarboxamide] |
| > 7.00 | O=C(Nc1cccc2c(-c3ccnc(NC(=O)C4CC4)c3)c[nH]c12)c1ccnc(F)c1 [Example 4, N-(3-(2-(cyclopropanecarboxamido)pyridin-4-yl)-1H-indol-7-yl)-2-fluoroisonicotinamide] |
| < 6.00 | O=C(NCC(F)(F)F)Nc1cccc2c(-c3ccnc(NC(=O)C4CC4)c3)cn(C(=O)NCC(F)(F)F)c12 [Example 37, 3-(2-(cyclopropanecarboxamido)pyridin-4-yl)-N-(2,2,2-trifluoroethyl)-7-(3-(2,2,2-trifluoroethyl)ureido)-1H-indole-1-carboxamide] |
| < 6.00 | Cc1ccc(C(=O)Nc2cccc3c2ccn3-c2ccnc(NC(=O)C3CC3)c2)cn1 [Example 59, N-(1-(2-(cyclopropanecarboxamido)pyridin-4-yl)-1H-indol-4-yl)-6-methylnicotinamide] |

Source: patent US12180185B2, “Compound as protein kinase inhibitor, and pharmaceutical composition comprising thereof” (HK INNO.N Corporation, priority 2018, dated 2024)
